The record followed here is patent US8153663B2, “3-amino-indazole or 3-amino-4,5,6,7-tetrahydro-indazole derivatives” (Hoffmann-La Roche Inc., priority 2008, dated 2012).

For the experiment, the target named is T1, FXR ligand binding domain (GST-FXR LBD fusion protein, human FXR aa 193-473) (Homo sapiens, UniProt Q96RI1).
T1 construct: made in house; host or cells: E. coli BL21(pLysS)
T1 sequence (Q96RI1 193-472 isoform Q96RI1-2 limits assumed): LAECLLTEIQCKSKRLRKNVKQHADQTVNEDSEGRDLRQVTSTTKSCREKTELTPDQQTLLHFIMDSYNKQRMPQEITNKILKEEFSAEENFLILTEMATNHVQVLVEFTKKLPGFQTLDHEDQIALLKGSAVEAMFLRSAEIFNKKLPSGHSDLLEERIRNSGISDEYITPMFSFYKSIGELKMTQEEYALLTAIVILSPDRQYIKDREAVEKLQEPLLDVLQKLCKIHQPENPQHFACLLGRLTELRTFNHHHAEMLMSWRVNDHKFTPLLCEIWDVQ
Kind of experiment: Radioligand binding assay (radioligand displacement, scintillation proximity). To be noted: 40 nM GST-FXR LBD on SPA beads, radioligand 2,N-dicyclohexyl-2-[2-(2,4 dimethoxy-phenyl)-benzoimidazol-1-yl]-acetamide, RT 30 minutes. How it is done:
The following tests were carried out in order to determine the activity of the compounds of formula I. Background information on the binding assay can be found in: Nichols J S et al. “Development of a scintillation proximity assay for peroxisome proliferator-activated receptor gamma ligand binding domain”, (1998) Anal. Biochem. 257: 112-119.
Bacterial and mammalian expression vectors were constructed to produce glutathione-s-transferase (GST) and Gal4 DNA binding domain (GAL) proteins fused to the ligand binding domain (LBD) of human FXR (aa 193-473). To accomplish this, the portions of the sequences encoding the FXR LBD were amplified by polymerase chain reaction (PCR) from a full-length clone by PCR and then subcloned into the plasmid vectors. The final clone was verified by DNA sequence analysis.
The induction, expression, and subsequent purification of GST-LBD fusion protein was performed in E. coli strain BL21(pLysS) cells by standard methods (Current Protocols in Molecular Biology, Wiley Press, ed. Ausubel et al).
Radioligand Binding Assay
Binding of test substances to the FXR ligand binding domain was assessed in a radioligand displacement assay. The assay was performed in a buffer consisting of 50 mM Hepes, pH 7.4, 10 mM NaCl, 5 mM MgCl2. For each reaction well in a 96-well plate, 40 nM of GST-FXR LBD fusion protein was bound to 10 μg glutathione ytrium silicate SPA beads (Pharmacia Amersham) in a final volume of 50 μl by shaking. A radioligand (e.g. 40 nM) of 2,N-dicyclohexyl-2-[2-(2,4 dimethoxy-phenyl)-benzoimidazol-1-yl]-acetamide) was added, and the reaction incubated at RT for 30 minutes in the presence of test compounds followed by scintillation proximity counting. All binding assays were performed in 96-well plates and the amount of bound ligand was measured on a Packard TopCount using OptiPlates (Packard). Dose response curves were performed within a range of concentration from 6×10^−9 M to 2.5×10^−5 M.
A word on the IC50: it is the midpoint of a concentration-inhibition curve. In the case of `O=C(NC1CCCCC1)N(c1c2ccccc2nn1-c1ccccc1)C1CCCCC1` [Example 1, 1,3-Dicyclohexyl-1-(2-phenyl-2H-indazol-3-yl)-urea], the IC50 turned out to be 40 nM.
The figure for `O=C(Nc1ccccc1F)N(c1c2ccccc2nn1-c1ccccc1)C1CCCCC1` [Example 3, 1-Cyclohexyl-3-(2-fluoro-phenyl)-1-(2-phenyl-2H-indazol-3-yl)-urea] is 830 nM.
In turn, `CCCCN(C(=O)NC1CCCCC1)c1c2ccccc2nn1-c1ccc(Cl)cc1` [Example 4, 1-Butyl-1-[2-(4-chloro-phenyl)-2H-indazol-3-yl]-3-cyclohexyl-urea] displayed an IC50 of 180 nM.
In the case of `O=C(O)c1ccc(NC(=O)N(Cc2ccccc2)c2c3ccccc3nn2-c2ccc(Cl)cc2)c(Cl)c1` [Example 9, 4-{3-Benzyl-3-[2-(4-chloro-phenyl)-2H-indazol-3-yl]-ureido}-3-chloro-benzoic acid], the IC50 is 1080 nM.
`O=C(NC1CCCCC1)N(c1c2ccccc2nn1-c1ccc(Cl)cc1)C1CCOCC1` [Example 10, 1-[2-(4-Chloro-phenyl)-2H-indazol-3-yl]-3-cyclohexyl-1-(tetrahydro-pyran-4-yl)-urea] showed an IC50 of 660 nM.
As to `O=C(NC1CCCCC1)N(c1c2ccccc2nn1-c1ccc(Cl)cc1)C1CCCCC1` [Example 11, 1-[2-(4-Chloro-phenyl)-2H-indazol-3-yl]-1,3-dicyclohexyl-urea], the half-maximal inhibitory concentration (IC50) turned out to be 20 nM.
The figure for `CCCCN(C(=O)Nc1ccc(C(=O)O)cc1Cl)c1c2ccccc2nn1-c1ccc(Cl)cc1` [Example 12, 4-{3-Butyl-3-[2-(4-chloro-phenyl)-2H-indazol-3-yl]-ureido}-3-chloro-benzoic acid] is 790 nM.
The molecule `O=C(NC1CCCCC1)N(c1ccccc1)c1c2ccccc2nn1-c1ccc(Cl)cc1` [Example 15, 1-[2-(4-Chloro-phenyl)-2H-indazol-3-yl]-3-cyclohexyl-1-phenyl-urea] yielded an IC50 of 460 nM.
Molecule `O=C(O)c1ccc(NC(=O)N(c2c3cc(F)c(F)cc3nn2-c2ccc(Cl)cc2)C2CCCCC2)c(Cl)c1` [Example 16, 3-Chloro-4-{3-[2-(4-chloro-phenyl)-5,6-difluoro-2H-indazol-3-yl]-3-cyclohexyl-ureido}-benzoic acid] showed an IC50 of 400 nM.
Molecule `COCCN(C(=O)NC1CCCCC1)c1c2ccccc2nn1-c1ccc(Cl)cc1` [Example 17, 1-[2-(4-Chloro-phenyl)-2H-indazol-3-yl]-3-cyclohexyl-1-(2-methoxy-ethyl)-urea] showed an IC50 of 2330 nM.
Regarding `O=C(NC1CCCCC1)N(c1cccc(Cl)c1)c1c2ccccc2nn1-c1ccc(Cl)cc1` [Example 19, 1-(3-Chloro-phenyl)-1-[2-(4-chloro-phenyl)-2H-indazol-3-yl]-3-cyclohexyl-urea], the IC50 was 20 nM.
`O=C(O)Cc1ccc(NC(=O)N(c2c3ccccc3nn2-c2ccc(Cl)cc2)C2CCCCC2)c(Cl)c1` [Example 21, (3-Chloro-4-{3-[2-(4-chloro-phenyl)-2H-indazol-3-yl]-3-cyclohexyl-ureido}-phenyl)-acetic acid] returned an IC50 of 720 nM.
The same measure for `CCOc1cccc(N(C(=O)NC2CCCCC2)c2c3ccccc3nn2-c2ccc(Cl)cc2)c1` [Example 25, 1-[2-(4-Chloro-phenyl)-2H-indazol-3-yl]-3-cyclohexyl-1-(3-ethoxy-phenyl)-urea]: 790 nM; for `O=C(O)CCc1ccc(NC(=O)N(c2c3ccccc3nn2-c2ccc(Cl)cc2)C2CCCCC2)c(F)c1` [Example 26, 3-(4-{3-[2-(4-Chloro-phenyl)-2H-indazol-3-yl]-3-cyclohexyl-ureido}-3-fluoro-phenyl)-propionic acid]: 340 nM; for `O=C(NC1CCCCC1)N(c1ccc(F)c(Cl)c1)c1c2ccccc2nn1-c1ccc(Cl)cc1` [Example 28, 1-(3-Chloro-4-fluoro-phenyl)-1-[2-(4-chloro-phenyl)-2H-indazol-3-yl]-3-cyclohexyl-urea]: 70 nM.
The figure for `O=C(O)c1ccc(NC(=O)N(c2c3ccccc3nn2-c2ccc(Cl)cc2)C2CCC2)c(Cl)c1` [Example 31, 3-Chloro-4-{3-[2-(4-chloro-phenyl)-2H-indazol-3-yl]-3-cyclobutyl-ureido}-benzoic acid] is 4310 nM.
Turning to `CC(C)(C(=O)O)c1ccc(NC(=O)N(c2c3ccccc3nn2-c2ccc(Cl)cc2)C2CCCCC2)c(F)c1` [Example 32, 2-(4-{3-[2-(4-Chloro-phenyl)-2H-indazol-3-yl]-3-cyclohexyl-ureido}-3-fluoro-phenyl)-2-methyl-propionic acid], the IC50 is 3350 nM.
On to `O=C(NC1CCCCC1)N(c1cccc(Cl)c1)c1c2ccc(F)cc2nn1-c1cccc(Cl)c1` [Example 35, 1-(3-Chloro-phenyl)-1-[2-(3-chloro-phenyl)-6-fluoro-2H-indazol-3-yl]-3-cyclohexyl-urea], for which the half-inhibitory concentration (IC50) stood at 20 nM.
The figure for `O=C(OC1CCCCC1)N(c1c2ccccc2nn1-c1ccc(Cl)cc1)C1CCCCC1` [Example 37, [2-(4-Chloro-phenyl)-2H-indazol-3-yl]-cyclohexyl-carbamic acid cyclohexyl ester] is 60 nM; for `O=C(NC1CCCC1)N(c1c2ccccc2nn1-c1ccc(Cl)cc1)C1CCCC1` [Example 38, 1-[2-(4-Chloro-phenyl)-2H-indazol-3-yl]-1,3-dicyclopentyl-urea] it is 240 nM; for `O=C(NC1CCCCC1)N(c1c2ccc(F)cc2nn1-c1ccc(Cl)cc1)C1CCCCC1` [Example 40, 1-[2-(4-Chloro-phenyl)-6-fluoro-2H-indazol-3-yl]-1,3-dicyclohexyl-urea] it is 20 nM.
The same measure for `O=C(N[C@H]1CC[C@H](O)CC1)N(c1cccc(Cl)c1)c1c2ccccc2nn1-c1ccc(Cl)cc1` [Example 41, trans-1-(3-Chloro-phenyl)-1-[2-(4-chloro-phenyl)-2H-indazol-3-yl]-3-(4-hydroxy-cyclohexyl)-urea]: 300 nM; for `O=C(NC1CCCCC1)N(c1cccc(Cl)c1)c1c2cc(F)c(F)cc2nn1-c1cccc(Cl)c1` [Example 43, 1-(3-Chloro-phenyl)-1-[2-(3-chloro-phenyl)-5,6-difluoro-2H-indazol-3-yl]-3-cyclohexyl-urea]: 80 nM.
The same measure for `O=C(NC1CCCCC1)N(c1cccc(Cl)c1)c1c2ccc(F)cc2nn1-c1ccc(Cl)cc1` [Example 44, 1-(3-Chloro-phenyl)-1-[2-(4-chloro-phenyl)-6-fluoro-2H-indazol-3-yl]-3-cyclohexyl-urea]: 100 nM.
